From US20070184135A1, “Morinda citrifolia-based formulation 5-LOX and 15-LOX” (priority 2003, published 2007)
“And” between values parts separate entries of the source, which are not always exact repeats. Equal values may be shown once.

Molecular target: T1, 5-Lipoxygenase (Homo sapiens, UniProt P09917)
T1 construct: Human peripheral blood mononuclear leukocytes (PBML) were isolated through a Ficoll-Paque density gradient; endogenous in cells; host or cells: human peripheral blood mononuclear leukocytes (PBML)
T1 sequence (P09917 1-674): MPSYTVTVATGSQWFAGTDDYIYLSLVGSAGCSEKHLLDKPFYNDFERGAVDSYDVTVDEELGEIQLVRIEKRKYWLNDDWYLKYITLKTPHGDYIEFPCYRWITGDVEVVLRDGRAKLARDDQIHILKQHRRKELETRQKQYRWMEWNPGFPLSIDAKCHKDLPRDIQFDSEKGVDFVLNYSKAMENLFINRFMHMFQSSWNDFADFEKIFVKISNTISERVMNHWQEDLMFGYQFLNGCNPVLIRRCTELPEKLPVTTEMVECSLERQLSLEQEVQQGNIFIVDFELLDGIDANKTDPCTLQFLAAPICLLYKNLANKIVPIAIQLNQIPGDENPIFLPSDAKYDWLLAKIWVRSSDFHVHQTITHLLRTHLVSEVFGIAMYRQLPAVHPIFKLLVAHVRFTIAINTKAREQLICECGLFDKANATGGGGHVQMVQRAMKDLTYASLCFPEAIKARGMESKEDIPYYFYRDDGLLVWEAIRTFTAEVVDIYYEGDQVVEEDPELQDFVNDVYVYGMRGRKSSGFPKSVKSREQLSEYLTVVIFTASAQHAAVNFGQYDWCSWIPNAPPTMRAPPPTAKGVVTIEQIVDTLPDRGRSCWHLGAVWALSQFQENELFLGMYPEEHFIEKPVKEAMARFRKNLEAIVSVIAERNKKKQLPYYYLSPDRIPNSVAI
Experiment: 5-Lipoxygenase inhibition in human PBML stimulated with A 23187, LTB4 measured by EIA
Type: cell-based
Excerpt: Methods employed in this example were adapted from the scientific literature to maximize reliability and reproducibility. […] 110-13 (2000).
In this study, the 5-LOX source was human peripheral blood mononuclear cells (PBMNC) and the substrate was arachidonic acid having a general reaction of: arachidonic acid→5-LOX→5-HPETE→LTB4. Human peripheral blood mononuclear leukocytes (PBML) were isolated through a Ficoll-Paque density gradient. The inhibiting agent was processed Morinda citrifolia puree juice concentrate. Morinda citrifolia was pre-incubated with PBML (5×10^6 cell/ml) in HBSS buffer pH 7.4 at 37° C. for 15 minutes. […] Following neutralization with NaOH and centrifugation, the supernatant LTB4 is measured using an EIA kit.
The supernatant sample was utilized in same assay and protocols as outlined in Example One above, wherein the brown substance obtained was substituted for Morinda citrifolia puree juice.

Product (0.03 uM): 3608.3 pg/well and 3403.4 pg/well
Product (0.1 uM): 2433.3 pg/well
Product (0.3 uM): 1083.1 pg/well and 1106.1 pg/well
Product (1 uM): 233.7 pg/well and 217.9 pg/well
Product (3 uM): 134.9 pg/well and 94.3 pg/well
SMILES: CC(Cc1ccc(O)c(O)c1)C(C)Cc1ccc(O)c(O)c1 (centres unmarked) [NDGA, nordihydroguaretic acid]
